Assay results as given in patent US20050107611A1, “Pyrazolyl-substituted triazoloquinoxalines” (priority 2001, published 2005).
Like-named read-outs stand apart in the source and are kept apart here.

What was measured:
adenosine receptors = details: in words; development for ischemic stroke halted; cited from earlier work
A1 adenosine receptor [1] = biological target: T1, A1 adenosine receptor (Rattus norvegicus, UniProt P25099); details: cited from earlier work
T1 sequence (P25099 1-326): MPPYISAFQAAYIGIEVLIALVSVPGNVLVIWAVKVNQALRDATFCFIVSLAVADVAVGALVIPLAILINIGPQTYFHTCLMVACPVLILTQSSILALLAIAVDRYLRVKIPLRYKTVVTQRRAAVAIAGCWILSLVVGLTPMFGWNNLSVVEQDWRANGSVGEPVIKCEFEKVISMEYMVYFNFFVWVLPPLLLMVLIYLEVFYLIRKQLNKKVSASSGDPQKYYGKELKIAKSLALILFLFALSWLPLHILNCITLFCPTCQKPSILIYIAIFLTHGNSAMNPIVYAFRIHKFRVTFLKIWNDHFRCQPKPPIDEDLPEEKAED

A2A adenosine receptor [2] = biological target: T2, A2A adenosine receptor (Rattus norvegicus, UniProt P30543); details: Table 1, literature values; cited from earlier work
T2 sequence (P30543 whole entry): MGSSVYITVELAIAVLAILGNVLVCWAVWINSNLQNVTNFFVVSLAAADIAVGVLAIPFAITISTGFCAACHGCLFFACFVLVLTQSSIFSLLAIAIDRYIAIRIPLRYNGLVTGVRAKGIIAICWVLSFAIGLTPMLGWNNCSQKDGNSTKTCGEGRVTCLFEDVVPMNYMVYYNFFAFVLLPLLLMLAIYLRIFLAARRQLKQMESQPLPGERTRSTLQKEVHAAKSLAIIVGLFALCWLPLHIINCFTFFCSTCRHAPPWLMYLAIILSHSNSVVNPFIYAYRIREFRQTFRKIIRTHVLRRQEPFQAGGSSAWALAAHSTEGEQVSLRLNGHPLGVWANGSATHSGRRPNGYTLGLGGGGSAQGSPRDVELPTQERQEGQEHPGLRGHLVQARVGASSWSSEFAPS

A2A-receptors = details: read-out: KiA2A; cited from earlier work
[3] = in words; cited from earlier work
[4] = in words; cited from earlier work; remark: listed apart in the source
A1 adenosine receptor [5] = biological target: T1, A1 adenosine receptor; assay: Radioligand binding with [3H]CCPA on A1-adenosine receptors, rat brain cortex membranes; design: tissue Pel Freez Company (Rogers, Ark., USA); host or cells: rat brain cerebral cortex membranes; details: Table 2; [3H]CCPA; read-out: A1 K1
Text: (§1) The data of the biological tests that are cited below results from radioligand-binding assays on A1, A2A, A2B and A3 adenosine receptors (ARs).
(§2) The following selective radioligands are used in the biological tests: • [^3H]CCPA (for A1 ARs) [Klotz et al., Naunyn-Schmiedeberg's Arch. Pharmacol., 340, 679 (1989)] • [^3]MSX-2 (for A2A ARs) [Muiller et al., Eur. J. Pharm. Sci., 10, 259 (2000)] • [^3H]ZM241385 (for A2B ARs_[X.-D. Ji, K. A. Jacobson, Drug Des. Discov., 16, 217 (1999)] • [^3H]PSB-11 (new antagonistic radioligand for human A3 ARs) [M. Dieckmann, M. Thorand, V. Ozola, C. E. Muiller, in Vorbereitung [Preparation] (2001)]. • [^125I]AB-MECA (for rat-A3 ARs) [Olah et al., Mol. Pharmacol., 45, 978 (1994)]. Description of the Assays That are Used for Testing Substances Production of Tissue Preparations Made from Rat Brains
For the preparations, deep-frozen rat brains of the Pel Freez Company (Rogers, Ark., USA) are used. The rat brains are thawed in 0.32 M saccharose solution, the cortex is cut off, and the striata are prepared outside.
(§3) The cell decomposing of the cerebral cortex is carried out with a glass-Teflon homogenizer (stages 5-6, 10 seconds) in 0.32 M saccharose solution. The membranes are purified over various centrifuging steps. With centrifuging at 600 g, 4° C., for 10 minutes, a large amount of cell debris is separated via the P1 fraction, and the supernatant (P2 fraction) is further worked up: in the subsequent three centrifuging steps (35,000 g; 4° C.; 60 minutes), a pellet is produced that is resuspended in 50 mmol of TRIS buffer, pH 7.4 with the Ultraturrax (stages 3-4, 3 seconds); the respective supernatant is discarded. The striata are added to cold TRIS buffer, homogenized with the Ultraturrax in stages 3 to 4-(3 seconds) and then centrifuged at 35,000 g, 4° C., for 20 minutes. The supernatant is discarded, and the pellet is resuspended in 50 mmol of TRIS buffer (50 mmol, pH 7.4). The washing process is repeated twice more. The membrane preparations are stored at −80° C. and are held for several months. The cerebral cortex membrane preparation is used for A1-radioligand binding studies, and the striatum is used for A2A-radiologiand binding studies.
(§4) The test substances are dissolved in DMSO to 10 mmol. The final concentration of DMSO in the assay is 2.5% for A1- and A2A-adenosine receptor assays and 1-2% for A2B- and A3-assays. Dilution series of the test substances are produced from the stock solution. Five to eight different test concentrations, which comprise 3 orders of magnitude (e.g., 1 nm to 1000 nm), are used.
Radioligand Binding Studies with [^3H]CCPA on A1-Adenosine Receptors:
The mixture is incubated for 90 minutes in an oscillating water bath at 23° C. Then, it is filtered off with a Brandel cell-harvester and washed twice more with ice-cooled TRIS buffer, 50 mmol, pH 7.4 (3 ml). The filter plates are conveyed in scintillation vials, doused with 2.5 ml of Ultima Gold Scintillation cocktail and incubated for at least 6 hours before they are measured in a scintillation counter.
(§5) The mean value is calculated from three independent experiments. IC50 and K, values are obtained from the Cheng-Prusoff equation, the concentration and the KD value of the radioligand. For calculation, the program GraphPadPrism™, Version 3.0 (GraphPad, San Diego, Calif., USA), was used.

A2A adenosine receptor [6] = biological target: T2, A2A adenosine receptor; assay: Receptor binding assay with [3H]MSX-2 on A2A-adenosine receptors; design: tissue Pel Freez Company (Rogers, Ark., USA); host or cells: rat brain striatum membranes; details: for Ki: Table 2, [3H]MSX-2, read-out: A2A K1
Text: as §1, §2, §3, §4
Receptor Binding Assay with [^3H]MSX-2 on A2A-Adenosine Receptors:
• 25 μl of DMSO, NECA (800 μmol) or test substance dilutions • 775 μl of TRIS buffer (for production, see above) • 100 μl of [^3H]MSX-2 (final concentration 1 nmol; KD value 8 nmol) • 100 μl of rat-striatum-membrane preparation or preparation of CHO cells, which express the human A2A receptor, incubated with 0.12 IE adenosine-deaminase (protein concentration: 25-75 μg/ml) • 1000 μl of final volume
The assay is performed according to the instructions of the receptor-binding assay with [^3H]CCPA with consideration of the amounts and solutions that are listed above. The incubation time is 30 minutes at 23° C. in an oscillating water bath. The glass fiber filter is introduced 30 minutes before use in 0.5% PEI solution.
as §5

[7] = Table 1, literature values, read-out: A1 K1

Q: For `Nc1nc2ccc(Cl)cc2c2nc(-c3ccco3)nn12` [CGS-15943, 9-Chloro-2-(2-furanyl)-[1,2,4]triazolo[1,5-c]quinazoline-5-amine], which selectivity (adenosine receptors) is on record?
A: The selectivity was “inadequate selectivity”.

Q: Which Ki (A1 adenosine receptor [1]; [7]) does the source give for `Clc1cc(-c2nc3ccccc3n3c(-c4ccco4)nnc23)[nH]n1` [R = 2-Furyl] here?
A: Its Ki is 410 ± 160 nM.

Q: What about the “A2A % Inhibition @ 25 μmol” value (A2A adenosine receptor [2]) of the same compound?
A: The value was “(31% ± 3%)”.

Q: What does the source list for `Clc1cc(-c2nc3ccccc3n3c(-c4cccs4)nnc23)[nH]n1` [R = 2-Thienyl]?
A: Ki (A1 adenosine receptor [1]; [7]): 710 ± 60 nM; A2A % Inhibition @ 25 μmol (A2A adenosine receptor [2]): (22% ± 13%)

Q: With `Clc1cc(-c2nc3ccccc3n3c(Cc4cccs4)nnc23)[nH]n1` [R = 2-Thienylmethyl] as the compound, how does the Ki (A1 adenosine receptor [1]; read-out: KiA1) read?
A: The Ki was 200 nM.

Q: And the “A2A % Inhibition @ 25 μmol” value (A2A adenosine receptor [2])?
A: The value was “(21% ± 10%)”.

Q: Which Ki (A1 adenosine receptor [1]; [7]) does the source give for `Clc1cc(-c2nc3ccccc3n3c(-c4ccccc4)nnc23)[nH]n1` [R = —C6H5] here?
A: The Ki was 1620 ± 680 nM.

Q: And the “A2A % Inhibition @ 25 μmol” value (A2A adenosine receptor [2])?
A: The value was “(0%)”.

Q: With `Clc1cc(-c2nc3ccccc3n3c(Cc4ccccc4)nnc23)[nH]n1` [R =—CH2C6H5] as the compound, how does the Ki (A1 adenosine receptor [1]; [7]) read?
A: Its Ki is 310 ± 90 nM.

Q: What about the “A2A % Inhibition @ 25 μmol” value (A2A adenosine receptor [2]) of the same compound?
A: The value was “(6.1% ± 1.5%)”.

Q: For `Nc1nc2c(cnn2CCc2ccccc2)c2nc(-c3ccco3)nn12` [Sch-52861, 2-(2-Furanyl)-7-(2-phenylethyl)-7H-pyrazolo[4,3-e][1,2,4]triazolo[1,5-c]pyrimidine-5-amine], which Ki (A2A-receptors) is on record?
A: Its Ki is 2.3 nM.

Q: And the solubility [3]?
A: Its solubility is “inadequate solubility”.

Q: And the oral bioavailability [4]?
A: Its oral bioavailability is “poor oral bioavailability”.

Q: What does the source list for `Clc1cc(-c2nc3ccccc3n3c(-c4ccsc4)nnc23)n[nH]1` [Y = C-(3-Thienyl), R5 = H, R6 = Cl]?
A: Ki (A1 adenosine receptor [5]): 330 nM; Ki (A2A adenosine receptor [6]): 4100 nM

Q: For `Clc1cc(-c2nc3ccccc3n3c(COCc4ccccc4)nnc23)n[nH]1` [Y = C—CH2—O—CH2-Ph, R5 = H, R6 = Cl], which Ki (A1 adenosine receptor [5]) is on record?
A: Its Ki is 620 nM.

Q: What about the “A2A % inhib. @ 10 μmol” value (A2A adenosine receptor [6]; 10 μmol) of the same compound?
A: The value was “(3%)”.

Q: And the Ki (A2A adenosine receptor [6])?
A: The Ki was greater than 10000 nM.

Q: For `CC(Oc1ccccc1)c1nnc2c(-c3cc(Cl)[nH]n3)nc3ccccc3n12` (stereo not drawn) [Y = C—CH—(CH3)—O-Ph, R5 = H, R6 = Cl], which Ki (A1 adenosine receptor [5]) is on record?
A: The Ki was 100 nM.

Q: What about the Ki (A2A adenosine receptor [6]) of the same compound?
A: The Ki was 1180 nM.
